{
  "source": "paper PMC5510229",
  "about": "“BCAT1 controls metabolic reprogramming in activated human macrophages and is associated with inflammatory diseases” (Nature Communications, 2017)",
  "key": {"[1]": {"test_system": "human monocyte-derived macrophages (hMDMs)", "assay": "qRT-PCR / Western blot of activation markers in hMDMs", "type": "cell-based", "settings": "3 h", "procedure": "Figure 1 BCAT1 expression and inhibition in human macrophages. […] (b) Chemical structure of ERG240 and leucine. (c) Enzymatic activity of recombinant human BCAT1 and BCAT2 in presence of ERG240. (d) Relative expression of IRG1, HIF1A and IL1B measured by qRT-PCR in control, ERG240-treated (20 mM, 3 h), LPS treated (100 ng ml^−1, 3 h), and LPS+ERG240 treated (LPS, 100 ng ml^−1; ERG240, 20 mM for 3 h) hMDMs. ns, non-significant. All expression values are normalized to those obtained for HPRT gene expression. n=3 healthy donor hMDMs were used in each group. (e) Western blot analysis of IRG1, IL-1β, HIF-1α and beta-actin (ACTB) in control (untreated), ERG240-treated (20 mM, 3 h), LPS treated (100 ng ml^−1, 3 h) and LPS+ERG240 treated (LPS, 100 ng ml^−1; ERG240, 20 mM for 3 h) hMDMs. […]\nhMDMs were lysed in Laemmli sample buffer supplemented with protease inhibitors and resolved by SDS-PAGE, transferred into PVDF membranes, and subjected to immunoblotting with the primary antibodies described above and secondary detection antibodies. The probed proteins were detected using SuperSignal West Femto Chemiluminescent Substrate (Thermo Fisher Scientific Inc., Rockford, IL). […] Results were analysed using the comparative Ct method and each sample was normalized to the indicated reference gene, to account for any cDNA loading differences. […]"}, "[2]": {"test_system": "human monocyte-derived macrophages (hMDMs)", "assay": "qRT-PCR / Western blot of activation markers in hMDMs", "type": "cell-based"}, "[3]": {"settings": "LPS 100 ng/ml + ERG240 20 mM, 3 h, qRT-PCR"}},
  "data": [
    {"molecule": "CC(=O)C(C)CCC(=O)O", "note": "(stereo not drawn) [ERG240]", "values": [
      {"measurement": "IRG1 protein levels (Western blot)", "setting": "[1]; LPS 100 ng ml^−1 + ERG240 20 mM", "result": "reduction in IRG1 levels"},
      {"measurement": "IRG1 mRNA levels", "setting": "[1]; LPS-stimulated hMDMs (100 ng ml^−1), ERG240 20 mM", "result": "dramatic reduction"},
      {"measurement": "NOS2 expression levels", "setting": "[2]; [3]", "result": "significantly reduced"},
      {"measurement": "TNF expression levels", "setting": "[2]; [3]", "result": "significantly reduced"},
      {"measurement": "IL-1β levels, long-term exposure", "setting": "[2]; LPS + ERG240 20 mM, 24 h, Western blot", "result": "reduced IL-1β levels"},
      {"measurement": "IRG1 expression in TNF-stimulated human macrophages", "setting": "[2]; TNF 2 ng/ml, ERG240 20 mM, 8 h", "result": "comparable inhibitory effect"}
    ]}
  ]
}
